{"source": "patent US11820799B2", "about": "“Malassezia factor with antibiotic activity” (priority 2021, dated 2023)", "test_system": "S. aureus", "assay": "S. aureus growth curves / MIC with oxacillin in TSB", "type": "cell-based, Staphylococcus aureus", "experimental": "S. aureus growth curves: S. aureus growth curves were performed on a BioTek Synergy™ H1 monochromator-based multi-mode microplate reader in non-treated flat bottom 96-well plates. S. aureus grown overnight in 5 mL of TSB was subcultured 1:10 in fresh TSB for 1 h. Cells were collected through centrifugation at 5,000×g for 1 min and resuspended in fresh TSB. For 0 μg/mL oxacillin, 4 μg/mL oxacillin, and 16 μg/mL oxacillin TSB was utilized with a starting OD600 of 0.02."}
{"compound": "Cc1onc(-c2ccccc2)c1C(=O)N[C@@H]1C(=O)N2[C@@H]1SC(C)(C)[C@@H]2C(=O)O", "note": "[oxacillin]", "values": [{"measurement": "growth of CFS-resistant strains with Sa-rel mutations (EVOL-P1 Y1 and IsoA)", "setting": "4 μg/mL oxacillin in TSB", "result": "able to grow robustly"}, {"measurement": "growth of CFS-resistant strains with Sa-rel mutations (EVOL-P1 Y1 and IsoA)", "setting": "16 μg/mL oxacillin in TSB", "result": "able to grow robustly"}, {"measurement": "MIC", "setting": "Staphylococcus aureus, ancestral strain, rich media (tryptic soy broth, TSB)", "result": "4 to 8", "unit": "µg/mL"}]}
